The record followed here is patent EP2457572A1, “Use of atomic quantum clusters (aqcs) in the prevention of cell proliferative disorders, viral infections and autoimmune diseases” (Universidade De Santiago De Compostela, priority 2010, dated 2012).

For the assay, the system named is HL-60 cells. Put plainly: Activated caspase 3 by flow cytometry (PE Active Caspase-3 Apoptosis kit). Type of assay: cell-based. As to conditions: camptothecin 30µM, non treated control 7.4 %. As to the method:
HL-60 cells were incubated with the various treatments. […] (It is well known that caspase 3 is the main effector of apoptosis mediated by caspase activation).
For orientation: Flow cytometry measures light scatter and fluorescence of single cells or particles in a stream.

As to `CC[C@@]1(O)C(=O)OCc2c1cc1n(c2=O)Cc2cc3ccccc3nc2-1` [camptothecin], the “cells positive for activated caspase 3” value came out at 32.4%.
